According to ChEMBL document CHEMBL5360547 (Eur J Med Chem, 2023):
Calls of active or inactive are those of the source. The rule behind the calls is not given here.

How the values were obtained:
Cortical neurone [1] = test: Cytotoxicity against primary C57BL/6J E14-17 mouse Cortical neuron assessed as decrease in cell viability at 1 uM incubated for 24 hrs by CCK-8 assay relative to control; assay type: toxicity, cell-based
Cortical neurone [2] = test: Neuroprotective activity against oxygen glucose deprivation induced ischemic stroke model in primary C57BL/6J E14-17 mouse Cortical neurons assessed as increase in cell viability at 10 uM incubated for 24 hrs by CCK-8 assay (Rvb= 57.43 +/- 2.54 %); assay type: functional
Cortical neurone [3] = test: Neuroprotective activity against oxygen glucose deprivation induced ischemic stroke model in primary C57BL/6J E14-17 mouse Cortical neurons assessed as increase in cell viability at 1 uM incubated for 24 hrs by CCK-8 assay (Rvb= 57.43 +/- 2.54 %); assay type: functional
Cortical neurone [4] = test: Cytotoxicity against primary C57BL/6J E14-17 mouse Cortical neuron assessed as decrease in cell viability at 10 uM incubated for 24 hrs by CCK-8 assay relative to control; assay type: toxicity, cell-based
Cortical neurone [5] = test: Neuroprotective activity against oxygen glucose deprivation induced ischemic stroke model in primary C57BL/6J E14-17 mouse Cortical neurons assessed as increase in cell viability at 0.5 to 20 uM incubated for 24 hrs by CCK-8 assay; assay type: functional, cell-based; conditions: dose 0.5-20 µM
Cortical neurone [6] = test: Cytotoxicity against primary C57BL/6J E14-17 mouse Cortical neuron assessed as decrease in cell viability upto 50 uM incubated for 24 hrs by CCK-8 assay; assay type: toxicity, cell-based
SH-SY5Y = test: Neuroprotective activity against oxygen glucose deprivation induced ischemic stroke model in human SH-SY5Y cells assessed as cell viability at 2 uM incubated for 24 hrs by CCK-8 assay; assay type: functional; conditions: read-out: Activity

Compound	Activity (Cortical neurone [1]) [%]	Activity (Cortical neurone [2]) [%]	Activity (Cortical neurone [3]) [%]	Activity (Cortical neurone [4]) [%]	Activity (Cortical neurone [5])	Activity (Cortical neurone [6])	Activity (Cortical neurone [2]; 24 h, 10 µM) [%]	Activity (Cortical neurone [3]; 24 h, 1 µM) [%]	viability at 2 µM (SH-SY5Y) [%]
N[C@@H]1CC[C@@H](c2ccc(Cl)c(Cl)c2)c2ccccc21 (relative stereo) [DASOTRALINE]	99.05	56.94	57.14	95.38	–	–	–	–	–
CCCCCCN[C@@H]1CC[C@@H](c2ccc(Cl)c(Cl)c2)c2ccccc21 (relative stereo)	98.87	81.04	62.38	113.14	Dose-Dependent Effect	Toxic	–	–	–
Clc1ccc([C@@H]2CC[C@@H](NCCc3c[nH]c4ccccc34)c3ccccc32)cc1Cl (relative stereo)	104.13	59.42	52.97	96.14	–	–	–	–	–
Clc1ccc([C@@H]2CC[C@@H](NCCCCc3ccccc3)c3ccccc32)cc1Cl (relative stereo)	98.28	58.59	57.11	94.37	–	–	–	–	–
COc1ccc(CN[C@@H]2CC[C@@H](c3ccc(Cl)c(Cl)c3)c3ccccc32)cc1OC (relative stereo)	99.79	66.65	62.06	95.48	Dose-Dependent Effect	Toxic	–	–	–
COc1cccc(CN[C@@H]2CC[C@@H](c3ccc(Cl)c(Cl)c3)c3ccccc32)c1 (relative stereo)	95.52	47.87	51.08	97.09	–	–	–	–	–
Clc1ccc([C@@H]2CC[C@@H](NC3CC3)c3ccccc32)cc1Cl (relative stereo)	100.03	66.66	62.49	109.93	–	–	–	–	–
CN[C@H]1CC[C@@H](c2ccc(Cl)c(Cl)c2)c2ccccc21	–	–	–	–	Active	–	–	–	–
CCCCCC(C)N[C@@H]1CC[C@@H](c2ccc(Cl)c(Cl)c2)c2ccccc21 (relative stereo)	89.48	60.07	58.02	84.74	–	–	–	–	–
CN[C@H]1CC[C@@H](c2ccc(Cl)c(Cl)c2)c2ccccc21 (racemic) [SERTRALINE]	96.32	–	–	92.98	–	–	45.76	60.36	–
CC(C)CN[C@@H]1CC[C@@H](c2ccc(Cl)c(Cl)c2)c2ccccc21 (relative stereo)	96.1	30.22	56.47	73.99	–	–	–	–	–
CC(C)(C)c1ccc(CN[C@@H]2CC[C@@H](c3ccc(Cl)c(Cl)c3)c3ccccc32)cc1 (relative stereo)	93.91	60.98	56.78	93.23	–	–	–	–	–
CCCCCCCCN(C)[C@H]1CC[C@@H](c2ccc(Cl)c(Cl)c2)c2ccccc21 (racemic)	–	–	–	–	Active	–	–	–	–
NCCCCN[C@@H]1CC[C@@H](c2ccc(Cl)c(Cl)c2)c2ccccc21 (relative stereo)	90.11	3.07	33.3	22.9	–	–	–	–	–
CN[C@@H]1CC[C@@H](c2ccc(Cl)c(Cl)c2)c2ccccc21 (racemic)	94.5	65.74	59.29	92.08	–	–	–	–	–
Clc1ccc([C@@H]2CC[C@@H](NCc3cccc4ccccc34)c3ccccc32)cc1Cl (relative stereo)	95.27	65.01	61.36	96.52	–	–	–	–	–
CCCCN[C@@H]1CC[C@@H](c2ccc(Cl)c(Cl)c2)c2ccccc21 (relative stereo)	95.75	50.99	54.27	94.94	–	–	–	–	–
NCCCCCCN[C@@H]1CC[C@@H](c2ccc(Cl)c(Cl)c2)c2ccccc21 (relative stereo)	48.84	3.43	–	22.62	–	–	–	–	–
CC(=O)N[C@@H]1CC[C@@H](c2ccc(Cl)c(Cl)c2)c2ccccc21 (relative stereo)	102.6	77.31	66.22	101.23	Dose-Dependent Effect	Toxic	–	–	–
O=C(CCCCl)N[C@@H]1CC[C@@H](c2ccc(Cl)c(Cl)c2)c2ccccc21 (relative stereo)	92.02	58.31	63.86	84.35	–	–	–	–	–
O=C(Cc1ccccc1)N[C@@H]1CC[C@@H](c2ccc(Cl)c(Cl)c2)c2ccccc21 (relative stereo)	–	–	–	–	Active	Toxic	–	–	–

Compound	Activity (Cortical neurone [1]) [%]	Activity (Cortical neurone [2]) [%]	Activity (Cortical neurone [3]) [%]	Activity (Cortical neurone [4]) [%]	Activity (Cortical neurone [5])	Activity (Cortical neurone [6])	Activity (Cortical neurone [2]; 24 h, 10 µM) [%]	Activity (Cortical neurone [3]; 24 h, 1 µM) [%]	viability at 2 µM (SH-SY5Y) [%]
Clc1ccc([C@@H]2CC[C@@H](NC3CCCCC3)c3ccccc32)cc1Cl (relative stereo)	97.01	69.46	61.62	102.77	Dose-Dependent Effect	Toxic	–	–	–
CCCCCCCCN(C)[C@@H]1CC[C@@H](c2ccc(Cl)c(Cl)c2)c2ccccc21 (racemic)	–	–	–	–	Active	Non-Toxic	–	–	–
CCCN[C@@H]1CC[C@@H](c2ccc(Cl)c(Cl)c2)c2ccccc21 (relative stereo)	96.43	55.53	62.89	100.55	–	–	–	–	–
Clc1ccc([C@@H]2CC[C@@H](NCc3ccc4c(c3)OCO4)c3ccccc32)cc1Cl (relative stereo)	104.95	57.62	63.19	95.94	–	–	–	–	–
CC(N[C@@H]1CC[C@@H](c2ccc(Cl)c(Cl)c2)c2ccccc21)c1ccccc1 (stereo partly specified)	98.48	51.75	45.67	45.32	–	–	–	–	–
Clc1ccc([C@@H]2CC[C@@H](NCC3CCCCC3)c3ccccc32)cc1Cl (relative stereo)	100.42	62.02	64.56	103.51	–	–	–	–	–
NCCN[C@@H]1CC[C@@H](c2ccc(Cl)c(Cl)c2)c2ccccc21 (relative stereo)	103.68	3.53	24.79	24.73	–	–	–	–	–
CC1=NN(c2ccccc2)C(=O)C1 [EDARAVONE]	98.61	64.15	64.39	96.6	–	–	–	–	71.3
CCCC(=O)N[C@@H]1CC[C@@H](c2ccc(Cl)c(Cl)c2)c2ccccc21 (relative stereo)	–	–	–	–	Active	Toxic	–	–	–
FC(F)(F)c1cccc(CN[C@@H]2CC[C@@H](c3ccc(Cl)c(Cl)c3)c3ccccc32)c1 (relative stereo)	90.68	59	65.74	85.87	–	–	–	–	–
COc1ccc(CN[C@@H]2CC[C@@H](c3ccc(Cl)c(Cl)c3)c3ccccc32)cc1 (relative stereo)	98.78	60.68	56.57	85.78	–	–	–	–	–
C=CCC(=O)N[C@@H]1CC[C@@H](c2ccc(Cl)c(Cl)c2)c2ccccc21 (relative stereo)	–	–	–	–	Active	Toxic	–	–	–
Clc1ccc([C@@H]2CC[C@@H](NCCN3CCNCC3)c3ccccc32)cc1Cl	90.76	28.28	56.76	31.8	–	–	–	–	–
Clc1ccc(CN[C@@H]2CC[C@@H](c3ccc(Cl)c(Cl)c3)c3ccccc32)cc1Cl	101.08	55.64	58.46	105.41	–	–	–	–	–
CN(C)[C@H]1CC[C@@H](c2ccc(Cl)c(Cl)c2)c2ccccc21	–	–	–	–	Active	Non-Toxic	–	–	–
Cc1cccc(CN[C@@H]2CC[C@@H](c3ccc(Cl)c(Cl)c3)c3ccccc32)c1 (relative stereo)	96.85	81.18	65.53	102.54	Dose-Dependent Effect	Toxic	–	–	–
Cc1ccc(CN[C@@H]2CC[C@@H](c3ccc(Cl)c(Cl)c3)c3ccccc32)cc1 (relative stereo)	92.92	59.01	60.9	84.46	–	–	–	–	–
CC(C)(C)OC(=O)N1CCN(CCN[C@@H]2CC[C@@H](c3ccc(Cl)c(Cl)c3)c3ccccc32)CC1 (relative stereo)	100.27	57.97	63.76	93.92	–	–	–	–	–
CC(C)(C)OC(=O)NCCN[C@@H]1CC[C@@H](c2ccc(Cl)c(Cl)c2)c2ccccc21 (relative stereo)	98.85	54.41	58.81	94.48	–	–	–	–	–
Clc1ccc([C@@H]2CC[C@@H](N3CCCC3)c3ccccc32)cc1Cl (relative stereo)	–	–	–	–	Active	Toxic	–	–	–
